# Laboratory results: patent US8039505B2, “Compounds for modulating T-cells” (University of Utah Research Foundation, priority 2007, dated 2011)
# Test system: T cells from the thymus of lck::eGFP transgenic zebrafish
# Experiment: Screen for T cell ablation in lck::eGFP transgenic zebrafish larvae
# Format: in vivo
# Experimental: FIG. 4 is a schematic of the experimental set-up of drug screen using DIVERSet small molecule library and lck-GFP transgenic zebrafish. Beginning at the top of the figure, three day 6 pf transgenic larvae are arrayed in 300 μL of E3 embryos water into each of the 96 wells of a round bottom tissue culture plate (except G1, H1, G12, H12). Controls are added in triplicate: DMSO (A1-C1), E3 (D1-F1), dexamethasone 25 μM (A12-C12), and methanol (D12-F12). Then, five compounds from the DIVERSet library are added to each well at a final concentration of 5 μM. Plates are incubated at […] for 48 hours, and are inspected by fluorescence microscopy at 24 and 48 hours. […] Compounds from wells identified as active are tested individually in triplicates. One of the five compounds that is active in all three wells is identified and is worked up further (left side).
# To extend the versatility of the system, a transgenic line of zebrafish was generated; in this line all T cells are tagged with green fluorescent protein (GFP). GFP is driven by the T cell specific p56^lck promoter (Langenau et al., Proc Natl Acad Sci USA 101:7369-7374, 2004).
# Based on the above observation that zebrafish T cells can be killed by the small molecule dexamethasone (MW 392) (Langenau et al., Proc Natl Acad Sci USA 101:7369-7374, 2004) a screen for novel compounds with a similar T cell ablative profile was performed. […]
compound,measurement,value
"C(=NNc1cccc2cccnc12)c1c[nH]c2ccccc12 [Compound C3, 1H-indole-3-carbaldehyde quinolin-8-ylhydrazone]",Activity in vivo (active concentration),3 µM
